Assay results published in patent US9090600B2, “Fungicidal 4-substituted-3-{phenyl[(heterocyclylmethoxy)imino]methyl}-1,2,4-oxadizol-5(4H)-one derivatives” (BAYER INTELLECTUAL PROPERTY GMBH, priority 2011, dated 2015).
Where two headings read alike, the source gives them in different places. Marks after values point to notes of the source that are not given here.

Key:
[1] = Measurement of log P values by HPLC on reversed phase columns (EEC directive 79/831 Annex V.A8); details: for chromatographic logP: pH 2.7; for LogP: method [a], HPLC on reversed phase columns
Plasmopara viticola = test: Plasmopara test (grapevines)/preventive; type: in vivo; details: preventive spray, 10 ppm of active ingredient, evaluated 6 days after inoculation
Description: Solvent: 24.5 parts by weight of acetone • 24.5 parts by weight of dimethylacetamide
Emulsifier: 1 part by weight of alkylaryl polyglycol ether
To produce a suitable preparation of active compound, 1 part by weight of active compound is mixed with the stated amounts of solvent and emulsifier, and the concentrate is diluted with water to the desired concentration.
To test for preventive activity, young plants are sprayed with the preparation of active compound at the stated rate of application. After the spray coating has dried on, the plants are inoculated with an aqueous spore suspension of Plasmopara viticola and then remain for 1 day in an incubation cabinet at approximately 20° C. and a relative atmospheric humidity of 100%. The plant is subsequently placed for 4 days in a greenhouse at approximately 21° C. and a relative atmospheric humidity of approximately 90%. The plants are then misted and placed for 1 day in an incubation cabinet.
The test is evaluated 6 days after the inoculation. 0% means an efficacy which corresponds to that of the untreated control, while an efficacy of 100% means that no disease is observed.

Phytophthora infestans [2] = type: in vivo; details: tomato, preventive spray, 100 ppm of active ingredient, evaluated 7 days after inoculation
Phytophthora infestans [3] = type: in vivo; details: tomato plants, spray, 500 ppm, grading 5 days after contamination
[4] = pH 2.7
[5] = test system: Mycosphaerella graminicola; test: In vivo test on Mycosphaerella graminicola (wheat leaf spot); details: wheat plants, spray, 500 ppm, grading 21 to 28 days after contamination
Description: The active ingredients tested are prepared by homogenization in a mixture of acetone/tween/DMSO, then diluted with water to obtain the desired active material concentration.
Wheat plants (Scipion variety), sown on a 50/50 peat soil-pozzolana substrate in starter cups and grown at 22° C. (12 h)/20° C. (12 h), are treated at the 1-leaf stage (10 cm tall) by spraying with the aqueous suspension described above. Plants, used as controls, are treated with an aqueous solution not containing the active material.
After 24 hours, the plants are contaminated by spraying them with an aqueous suspension of cryopreserved Mycosphaerella graminicola spores (500.000 spores per ml). The contaminated wheat plants are incubated for 72 hours at 18° C. and at 100% relative humidity, and then for 21 to 28 days at 90% relative humidity.
Grading (% of efficacy) is carried out 21 to 28 days after the contamination, in comparison with the control plants.
(§1) Under these conditions, good (at least 70%) or total protection is observed at a dose of 500 ppm with the following compounds: […]

Puccinia recondita = test: In vivo test on Puccinia recondita (brown rust); details: wheat plants, spray, 500 ppm, grading 10 days after contamination
Description: The active ingredients tested are prepared by homogenization in a mixture of acetone/tween/DMSO, then diluted with water to obtain the desired active material.
Wheat plants (Scipion variety) sown on 50/50 peat soil-pozzolana substrate in starter cups and grown at 22° C. (12 h)/20° C. (12 h), are treated at the 1-leaf stage (10 cm tall) by spraying with the aqueous suspension described above.
Plants, used as controls, are treated with an aqueous solution not containing the active material. After 24 hours, the plants are contaminated by spraying the leaves with an aqueous suspension of Puccinia recondite spores (100.000 spores per ml). The spores are collected from a 10-day-old contaminated wheat and are suspended in water containing 2.5 ml/l of tween 80 10%. The contaminated wheat plants are incubated for 24 hours at 20° C. and at 100% relative humidity, and then for 10 days at 20° C. and at 70% relative humidity. Grading is carried out 10 days after the contamination, in comparison with the control plants.
as §1

Structure (SMILES) | chromatographic logP [1] | Eff. % (Phytophthora infestans [3]) | LogP [4] | Eff. % [5] | also measured
Cn1c(/C(=N\OCc2cccc(N)n2)c2ccccc2)noc1=O [Example 1, 3-[(Z)-{[(6-aminopyridin-2-yl)methoxy]imino}(phenyl)methyl]-4-methyl-1,2,4-oxadiazol-5(4H)-one] | 1.14 | – | – | – | –
Cn1c(/C(=N\OCc2csc(N)n2)c2ccccc2)noc1=O [Example 4, 3-[(Z)-{[(2-amino-1,3-thiazol-4-yl)methoxy]imino}(phenyl)methyl]-4-methyl-1,2,4-oxadiazol-5(4H)-one] | 1.54 | – | – | – | –
C=CCCCOC(=O)Nc1cccc(CO/N=C(/c2ccccc2)c2noc(=O)n2C)n1 [Example 6] | – | – | – | – | LogP [1]: 4.06 [a]; Eff. % (Plasmopara viticola): 100%; Eff. % (Phytophthora infestans [2]): 98%
CCCCOC(=O)Nc1nc(CO/N=C(/c2ccccc2)c2noc(=O)n2C)cs1 [Example 14, butyl {4-[({[(Z)-(4-methyl-5-oxo-4,5-dihydro-1,2,4-oxadiazol-3-yl)(phenyl)methylene]amino}oxy)methyl]-1,3-thiazol-2-yl}carbamate] | 3.73 | – | – | – | Eff. % (Plasmopara viticola): 96%; Eff. % (Phytophthora infestans [2]): 95%
CCCCOC(=O)Nc1cccc(CO/N=C(/c2ccccc2)c2noc(=O)n2C)n1 [Example 18, butyl {6-[({[(Z)-(4-methyl-5-oxo-4,5-dihydro-1,2,4-oxadiazol-3-yl)(phenyl)methylene]amino}oxy)methyl]pyridin-2-yl}carbamate] | 4.04 | – | – | – | Eff. % (Plasmopara viticola): 100%; Eff. % (Phytophthora infestans [2]): 95%
CC(Oc1ccccc1)C(=O)Nc1nc(CO/N=C(/c2ccccc2)c2noc(=O)n2C)cs1 (stereo not drawn) [Example 19] | – | – | – | – | LogP [1]: 3.71 [a]; Eff. % (Plasmopara viticola): 97%; Eff. % (Phytophthora infestans [2]): 95%
Cn1c(/C(=N\OCc2cccc(NC(=O)OC(C)(C)C)n2)c2ccccc2)noc1=O [Example 21, tert-butyl {6-[({[(Z)-(4-methyl-5-oxo-4,5-dihydro-1,2,4-oxadiazol-3-yl)(phenyl)methylene]amino}oxy)methyl]pyridin-2-yl}carbamate] | 3.96 | – | – | – | Eff. % (Plasmopara viticola): 100%; Eff. % (Phytophthora infestans [2]): 97%
Nc1cccc(CO/N=C(/c2ccccc2)c2noc(=O)[nH]2)n1 [Example 23, 3-[(Z)-{[(6-aminopyridin-2-yl)methoxy]imino}(phenyl)methyl]-1,2,4-oxadiazol-5(4H)-one] | 1.36 | – | – | – | –
Nc1nc(CO/N=C(/c2ccccc2)c2noc(=O)[nH]2)cs1 [Example 24, 3-[(Z)-{[(2-amino-1,3-thiazol-4-yl)methoxy]imino}(phenyl)methyl]-1,2,4-oxadiazol-5(4H)-one] | 1.58 | – | – | – | –
Cn1c(/C(=N/OCc2cccc(N)n2)c2ccccc2)noc1=O [Example 25, 3-[(E)-{[(6-aminopyridin-2-yl)methoxy]imino}(phenyl)methyl]-4-methyl-1,2,4-oxadiazol-5(4H)-one] | 1.14 | – | – | – | –
C#CCCCCC(=O)Nc1cccc(CO/N=C(/c2ccccc2)c2noc(=O)n2C)n1 [Example 37] | – | 100% | – | – | LogP [1]: 3.37 [a]; Eff. % (Plasmopara viticola): 80%
Cn1c(/C(=N\OCc2cccc(NC(=O)C3(C)CCCCC3)n2)c2ccccc2)noc1=O [Example 40] | – | 100% | – | – | LogP [1]: 4.36 [a]
COc1cccc(C(=O)Nc2cccc(CO/N=C(/c3ccccc3)c3noc(=O)n3C)n2)c1 [Example 44] | – | 100% | – | – | LogP [1]: 3.62 [a]; Eff. % (Plasmopara viticola): 98%
Cn1c(/C(=N\OCc2cccc(NC(=O)C(c3ccccc3)c3ccccc3)n2)c2ccccc2)noc1=O [Example 46] | – | – | – | – | LogP [1]: 4.48 [a]
Cn1c(/C(=N\OCc2csc(NC(=O)c3ccccc3Cl)n2)c2ccccc2)noc1=O [Example 57] | – | 85% | 3.46 [a] | 79% | –
Cn1c(/C(=N\OCc2cccc(NC(=O)CCC3CCCCC3)n2)c2ccccc2)noc1=O [Example 77] | – | 100% | 4.73 [a] | 71% | –

Structure (SMILES) | chromatographic logP [1] | Eff. % (Phytophthora infestans [3]) | LogP [4] | Eff. % [5] | also measured
COc1cccc(/C(=N/OCc2cccc(N)n2)c2noc(=O)n2C)c1 [Example 108] | – | 100% | 1.32 [a] | 71% | –
CCn1c(/C(=N\OCc2cccc(NC(=O)C3COc4ccccc4O3)n2)c2ccccc2)noc1=O (stereo not drawn) [Example 130] | – | 100% | 4.14 [a] | 86% | –
COc1cccc(CCOC(=O)Nc2cccc(CO/N=C(/c3ccccc3)c3noc(=O)n3C)n2)c1 [Example 151] | – | 85% | 4.11 [a] | 92% | –
Cn1c(/C(=N\OCc2csc(NC(=O)c3ccccc3I)n2)c2ccccc2)noc1=O [Example 158] | – | 85% | 3.6 [a] | 80% | –
CCCC(C)C(=O)Nc1cccc(CO/N=C(/c2ccccc2)c2noc(=O)n2CC)n1 (stereo not drawn) [Example 172] | – | 100% | 4.06 [a] | 86% | Eff. % (Puccinia recondita): 89%
Cn1c(/C(=N\OCc2cccc(NC(=O)CC(C)(C)C)n2)c2ccccc2)noc1=O [Example 173] | – | 100% | 3.78 [a] | 73% | Eff. % (Puccinia recondita): 89%; Eff. % (Plasmopara viticola): 86%
C#CCCC(C)OC(=O)Nc1cccc(CO/N=C(/c2ccccc2)c2noc(=O)n2CC)n1 (stereo not drawn) [Example 207] | – | 100% | 4.04 [a] | 79% | –
CCCC(C)C(=O)Nc1cccc(CON=C(c2ccccc2)c2noc(=O)n2C)n1 (stereo not drawn) [Example 248] | – | 100% | 3.8 [a] | 86% | Eff. % (Plasmopara viticola): 85%
Cn1c(/C(=N\OCc2cccc(NCCC3CCCCC3)n2)c2ccccc2)noc1=O [Example 253, 3-[(Z)-[({6-[(2-cyclohexylethyl)amino]pyridin-2-yl}methoxy)imino](phenyl)methyl]-4-methyl-1,2,4-oxadiazol-5(4H)-one] | 2.96 | – | – | – | –
CCn1c(C(=NOCc2cccc(NC(=O)OCCc3ccccc3)n2)c2ccccc2)noc1=O [Example 270] | – | 100% | 4.41 [a] | 86% | –
Cn1c(/C(=N\OCc2cccc(N(CCC3CCCCC3)C(=O)OC(C)(C)C)n2)c2ccccc2)noc1=O [Example 279, tert-butyl (2-cyclohexylethyl){6-[({[(Z)-(4-methyl-5-oxo-4,5-dihydro-1,2,4-oxadiazol-3-yl)(phenyl)methylene]amino}oxy)methyl]pyridin-2-yl}carbamate] | 6.73 | – | – | – | –
Cn1c(/C(=N\OCc2cccc(NC(=O)Cc3ccccc3)n2)c2ccccc2)noc1=O [Example 341] | – | 100% | 3.53 [a] | 70% | –
CCCCC(=O)Nc1cccc(CO/N=C(/c2cccc(C)c2)c2noc(=O)n2C)n1 [Example 384] | – | 100% | 3.83 [a] | 70% | Eff. % (Puccinia recondita): 79%
NC(=N\O)/C(=N\OCc1csc(N)n1)c1ccccc1 [Example V-2, (1Z,2Z)-2-{[(2-amino-1,3-thiazol-4-yl)methoxy]imino}-N′-hydroxy-2-phenylethanimidamide] | 0.43 | – | – | – | –
N/C(=N\O)C(=NOCc1cccc(N)n1)c1ccccc1 [Example V-3, (Z)-2-{[(6-aminopyridin-2-yl)methoxy]imino}-N′-hydroxy-2-phenylethanimidamide] | 0.41 | – | – | – | –
Cn1c(C(=O)c2ccccc2)noc1=O [VII-1, 3-benzoyl-4-methyl-1,2,4-oxadiazol-5(4H)-one] | 3.21 | – | – | – | –
